# Data reported in ChEMBL document CHEMBL2380208, “Novel quinoline derivatives as inhibitors of bacterial DNA gyrase and topoisomerase IV” (Bioorg Med Chem Lett, 2013).
# How the values were obtained:
# [1] = test system: Staphylococcus aureus; assay: Antibacterial activity against fluoroquinolone-resistant Staphylococcus aureus harboring DNA gyrase D83N mutant; format: functional
# [2] = test system: Staphylococcus aureus; assay: Antibacterial activity against fluoroquinolone-resistant Staphylococcus aureus harboring DNA gyrase M121K mutant; format: functional
# [3] = test system: Staphylococcus aureus; assay: Antibacterial activity against fluoroquinolone-resistant Staphylococcus aureus 1095; format: functional
# [4] = molecular target: DNA gyrase (Staphylococcus aureus, UniProt P0A0K8+P20831); assay: Inhibition of Staphylococcus aureus DNA gyrase; format: protein-complex assay
# [5] = Inhibition of Staphylococcus aureus DNA topoisomerase 4
# [6] = test system: Staphylococcus aureus; assay: Antibacterial activity against Staphylococcus aureus 1146; format: functional
# [7] = Inhibition of human DNA topoisomerase 4
# [8] = Inhibition of Streptococcus pneumoniae topoisomerase 4
# [9] = Inhibition of Streptococcus pneumoniae DNA gyrase
# [10] = molecular target: Voltage-gated inwardly rectifying potassium channel KCNH2 (Homo sapiens, UniProt Q12809); assay: Inhibition of human ERG channel in HEK293 cells by voltage-gated patch clamp technique; format: cell-based
# Chain of Voltage-gated inwardly rectifying potassium channel KCNH2 (Q12809 whole entry): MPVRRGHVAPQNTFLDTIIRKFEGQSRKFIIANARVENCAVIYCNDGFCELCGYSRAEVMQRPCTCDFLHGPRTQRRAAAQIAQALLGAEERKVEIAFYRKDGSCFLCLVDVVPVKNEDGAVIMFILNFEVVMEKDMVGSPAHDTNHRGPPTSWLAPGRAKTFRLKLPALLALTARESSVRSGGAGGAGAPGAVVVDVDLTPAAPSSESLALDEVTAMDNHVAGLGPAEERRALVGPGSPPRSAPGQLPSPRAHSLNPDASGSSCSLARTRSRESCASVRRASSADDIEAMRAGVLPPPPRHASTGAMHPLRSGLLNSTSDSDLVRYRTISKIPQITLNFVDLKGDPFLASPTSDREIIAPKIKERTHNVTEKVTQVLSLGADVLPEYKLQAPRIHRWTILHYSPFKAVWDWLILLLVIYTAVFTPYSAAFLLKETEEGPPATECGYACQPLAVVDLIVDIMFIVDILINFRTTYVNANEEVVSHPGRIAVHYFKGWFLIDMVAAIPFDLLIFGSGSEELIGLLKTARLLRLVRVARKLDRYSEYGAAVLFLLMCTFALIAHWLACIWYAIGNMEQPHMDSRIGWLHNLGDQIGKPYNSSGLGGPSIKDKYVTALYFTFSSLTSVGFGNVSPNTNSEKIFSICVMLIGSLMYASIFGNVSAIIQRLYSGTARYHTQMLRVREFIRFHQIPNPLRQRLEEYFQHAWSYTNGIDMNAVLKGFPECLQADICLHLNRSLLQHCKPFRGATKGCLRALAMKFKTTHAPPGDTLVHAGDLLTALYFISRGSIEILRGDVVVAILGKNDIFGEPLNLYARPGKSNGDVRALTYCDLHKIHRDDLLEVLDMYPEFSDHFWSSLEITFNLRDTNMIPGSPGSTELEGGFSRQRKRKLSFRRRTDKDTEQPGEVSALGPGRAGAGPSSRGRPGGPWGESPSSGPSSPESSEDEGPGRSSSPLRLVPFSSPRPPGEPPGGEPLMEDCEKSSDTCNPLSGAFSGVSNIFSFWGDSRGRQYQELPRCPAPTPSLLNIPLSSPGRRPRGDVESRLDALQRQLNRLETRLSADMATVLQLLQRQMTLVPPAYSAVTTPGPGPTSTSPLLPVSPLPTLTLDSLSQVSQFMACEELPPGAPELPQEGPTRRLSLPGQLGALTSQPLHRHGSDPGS
# [11] = test system: Streptococcus pyogenes; assay: Antibacterial activity against Streptococcus pyogenes; format: functional
# [12] = test system: Staphylococcus aureus; assay: Antibacterial activity against Staphylococcus aureus; format: functional
# [13] = test system: Staphylococcus aureus; assay: Antibacterial activity against fluoroquinolone-resistant Staphylococcus aureus 1095 infected in mouse assessed as survival compound administered 0.5 to 4 hrs post-infection measured after 7 days; format: functional; conditions: read-out: PD50
# [14] = Clearance in rat at 2 mg/kg, iv and 5 mg/kg, po; format: ADME, organism-based; conditions: in vivo
# [15] = molecular target: DNA gyrase subunit A (Staphylococcus aureus, UniProt P20831, D83N); assay: Inhibition of Staphylococcus aureus DNA gyrase D83N mutant
# [16] = molecular target: DNA gyrase subunit A (Staphylococcus aureus, UniProt P20831, M121K); assay: Inhibition of Staphylococcus aureus DNA gyrase M121K mutant
# [17] = test system: Streptococcus pyogenes; assay: Antibacterial activity against Streptococcus pyogenes 02C0203 infected in mouse assessed as survival compound administered 0.5 to 4 hrs post-infection measured after 7 days; conditions: 02C0203, in Mus musculus, read-out: PD50
# [18] = Volume of distribution at steady state in rat at 2 mg/kg, iv and 5 mg/kg, po; format: ADME, organism-based; conditions: in vivo, read-out: Vdss
# [19] = Oral bioavailability in rat at 5 mg/kg; format: ADME, organism-based; conditions: in vivo
SMILES,MIC [1],MIC [2],MIC [3],IC50 [4],IC50 [5],MIC [6],IC50 [7],IC50 [8],IC50 [9],IC50 [10],MIC90 [11],MIC90 [12],ED50 [13],clearance [14],IC50 [15],IC50 [16],ED50 [17],Vd [18],bioavailability [19]
COc1ccc2nccc([C@@H](O)CC[C@@H]3CCN(C4CC(c5ccccc5F)C4)C[C@@H]3C(=O)O)c2c1 (some centres not stated),64 µg/mL,> 64 µg/mL,≤ 0.0625 µg/mL,12.5 µM,37 µM,≤ 0.0625 µg/mL,–,–,–,–,–,–,–,–,–,–,–,–,–
COc1ccc2nccc([C@@H](O)CC[C@@H]3CCN(C4CC(c5c(OC)ccc(F)c5F)C4)C[C@@H]3C(=O)O)c2c1 (some centres not stated),64 µg/mL,> 64 µg/mL,2 µg/mL,1.56 µM,45 µM,0.25 µg/mL,–,–,–,–,–,–,–,–,–,–,–,–,–
COc1ccc2nccc([C@@H](O)CC[C@@H]3CCN(C4CC(c5cc(Cl)ccc5F)C4)C[C@@H]3C(=O)O)c2c1 (some centres not stated),64 µg/mL,64 µg/mL,≤ 0.0625 µg/mL,1.56 µM,33.3 µM,≤ 0.0625 µg/mL,–,–,–,–,–,–,–,–,–,–,–,–,–
COc1ccc2nccc([C@@H](O)CC[C@@H]3CCN(C4CC(c5cc(F)ccc5C(F)(F)F)C4)C[C@@H]3C(=O)O)c2c1 (some centres not stated),16 µg/mL,32 µg/mL,0.5 µg/mL,9.4 µM,60 µM,0.25 µg/mL,–,–,–,–,–,–,–,–,–,–,–,–,–
COc1ccc2nccc([C@H](O)CC[C@@H]3CCN(C4CC(c5ccccc5)C4)C[C@@H]3C(=O)O)c2c1 (some centres not stated),–,–,–,–,–,0.23 µg/mL,> 200 µM,30 µM,21.7 µM,–,–,–,–,–,–,–,–,–,–
COc1ccc2nccc([C@@H](O)CC[C@@H]3CCN(C/C=C/c4ccccc4)C[C@@H]3C(=O)O)c2c1,> 64 µg/mL,> 64 µg/mL,1 µg/mL,4.7 µM,> 200 µM,0.5 µg/mL,–,–,–,–,–,–,–,–,–,–,–,–,–
COc1ccc2nccc([C@@H](O)CC[C@@H]3CCN(C4CC(c5cc(F)cc(F)c5F)C4)C[C@@H]3C(=O)O)c2c1 (some centres not stated),8 µg/mL,8 µg/mL,0.125 µg/mL,1.56 µM,8.4 µM,≤ 0.0625 µg/mL,–,–,–,30.9 µM,–,–,–,–,–,–,–,–,–
O=C(O)c1cn(C2CC2)c2cc(N3CCNCC3)c(F)cc2c1=O [CIPROFLOXACIN],–,–,–,–,–,–,–,–,–,–,0.5 µg/mL,> 64 µg/mL,–,–,–,–,–,–,–
COc1ccc2nccc([C@@H](O)CC[C@@H]3CCN(C4CC(c5c(F)ccc(F)c5F)C4)C[C@@H]3C(=O)O)c2c1 (some centres not stated),8 µg/mL,16 µg/mL,≤ 0.0625 µg/mL,1.56 µM,35.6 µM,≤ 0.0625 µg/mL,–,–,–,–,–,–,–,–,–,–,–,–,–
COc1ccc2nccc([C@@H](O)CC[C@@H]3CCN(C4CC(c5cc(F)c(Cl)cc5F)C4)C[C@@H]3C(=O)O)c2c1 (some centres not stated),> 64 µg/mL,> 64 µg/mL,1 µg/mL,4.7 µM,120 µM,0.25 µg/mL,–,–,–,–,–,–,–,–,–,–,–,–,–
COc1ccc2nccc([C@@H](O)CC[C@@H]3CCN(C4CC(c5cccc(F)c5F)C4)C[C@@H]3C(=O)O)c2c1 (some centres not stated),32 µg/mL,32 µg/mL,< 0.0625 µg/mL,1.56 µM,30 µM,≤ 0.0625 µg/mL,–,–,–,–,–,–,–,–,–,–,–,–,–
COc1ccc2nccc([C@@H](O)CC[C@@H]3CCN(C4CC(c5ccccc5)C4)C[C@@H]3C(=O)O)c2c1 (some centres not stated),≥ 32 µg/mL,≥ 64 µg/mL,0.2 µg/mL,1.19 µM,32.1 µM,0.09 µg/mL,> 200 µM,8.37 µM,8.84 µM,24.9 µM,1 µg/mL,0.25 µg/mL,6.9 mg/kg,43.1 mL/min/kg,> 200 µM,> 200 µM,14.1 mg/kg,1.24 L/kg,27%
COc1ccc2nccc([C@@H](O)CC[C@@H]3CCN(C4CC(c5c(F)cccc5F)C4)C[C@@H]3C(=O)O)c2c1 (some centres not stated),32 µg/mL,23 µg/mL,0.25 µg/mL,2.93 µM,> 100 µM,0.125 µg/mL,–,–,–,–,1 µg/mL,0.25 µg/mL,16.3 mg/kg,39.7 mL/min/kg,–,–,22 mg/kg,3 L/kg,–
COc1ccc(F)c(C2CC(N3CC[C@@H](CC[C@H](O)c4ccnc5ccc(OC)cc45)[C@@H](C(=O)O)C3)C2)c1 (some centres not stated),> 64 µg/mL,> 64 µg/mL,4 µg/mL,50 µM,> 120 µM,–,–,–,–,–,–,–,–,–,–,–,–,–,–
